# Laboratory results as given in patent US9388389B2, “JFH-1 based HCV cell culture systems for NS5A of genotypes 1-7” (Hvidovre Hospital, priority 2009, dated 2016).
# Assays:
# Experiment in all cases: IFN-alpha 2b treatment of infected cultures
# Format in all cases: cell-based, hepatitis C virus
# [1] = system: ED43(4a) NS5A recombinant; conditions: genotype 4a, isolate ED43 NS5A recombinant
# Description: (§1) Huh7.5 cells were infected with J6/JFH1 with NS5A of the indicated isolate (or ISDR type). J6/JFH1 was included with two infectious doses to control for impact of dose variability. The infectious dose of other recombinants was in the range between. […] On day three cells were fixed and immunostained for NS3 expression. The number of single infected cells was determined by automated counting of individual wells. Values are shown as percentage infected cells compared to the average for non-treated controls of the given recombinant. Data were fitted to a sigmoidal dose-response curve with the equation Y=1/(1+10^((Log(EC50)−Log(IU/mL))*HillSlope)), where Y is the response in %.
# (§2) 5×10^3 naïve Huh7.5 cells were plated per well in a poly-D-lysine coated 96-well plate (Nunc, Roskilde, D K) one day before infection with different recombinant viruses. Infectious doses were chosen to aim at 400-1000 single infected cells in non-treated wells at the end of the experiment. J6/JFH1 was included with two infectious doses (high and low) to control for impact of dose variability. The infectious dose of other recombinants was in the range between. […] On day three cells were fixed and immunostained for NS3 expression as described above. In parallel, cell viability was monitored with CellTiter™ 96 AQueous One Solution Cell Proliferation Assay (Promega, Madison, Wis. USA). The number of single infected cells was determined by automated counting of individual wells as described above.
# (§3) On day three cells were fixed and immunostained for NS3 expression. The number of single infected cells was determined by automated counting (FIG. 15).
# [2] = system: H77C(1a) NS5A recombinant; conditions: genotype 1a, isolate H77C NS5A recombinant
# Description: as §1, §2, §3
# [3] = system: HK6a(6a) NS5A recombinant; conditions: genotype 6a, isolate HK6a NS5A recombinant
# Description: as §1, §2, §3
# [4] = system: J4(1b) NS5A ISDR mutant recombinant; conditions: genotype 1b, isolate J4 NS5A
# Description: as §1, §2, §3
# [5] = system: J4(1b) NS5A recombinant; conditions: genotype 1b, isolate J4 NS5A recombinant
# Description: as §1, §2, §3
# [6] = system: J6(2a) NS5A recombinant; conditions: genotype 2a, isolate J6 NS5A recombinant
# Description: as §1, §2, §3
# [7] = system: JFH1(2a) NS5A (J6/JFH1); conditions: genotype 2a, isolate JFH1 NS5A (J6/JFH1)
# Description: as §1, §2, §3
# [8] = system: QC69(7a) NS5A recombinant; conditions: genotype 7a, isolate QC69 NS5A recombinant
# Description: as §1, §2, §3
# [9] = system: S52(3a) NS5A recombinant; conditions: genotype 3a, isolate S52 NS5A recombinant
# Description: as §1, §2, §3
# [10] = system: SA13(5a) NS5A recombinant; conditions: genotype 5a, isolate SA13 NS5A recombinant
# Description: as §1, §2, §3
# [11] = system: TN(1a) NS5A recombinant; conditions: genotype 1a, isolate TN NS5A recombinant
# Description: as §1, §2, §3
substance,measurement,setting,value
IFN-α,"IFN-α, EC50 (IU/mL), original",[1],0.15 IU/mL
same,"IFN-α, EC50 (IU/mL), original",[2],0.25 IU/mL
same,"IFN-α, EC50 (IU/mL), original",[3],0.21 IU/mL
same,"IFN-α, EC50 (IU/mL), 'Sensitive-type' ISDR mutant",[4],0.12 IU/mL
same,"IFN-α, EC50 (IU/mL), original",[5],0.12 IU/mL
same,"IFN-α, EC50 (IU/mL), original",[6],0.12 IU/mL
same,"IFN-α, EC50 (IU/mL), original",[7],0.25 IU/mL
same,"IFN-α, EC50 (IU/mL), original",[8],0.18 IU/mL
same,"IFN-α, EC50 (IU/mL), original",[9],0.27 IU/mL
same,"IFN-α, EC50 (IU/mL), original",[10],0.32 IU/mL
same,"IFN-α, EC50 (IU/mL), original",[11],0.28 IU/mL
